Laboratory results taken from PMC3454376, “Salidroside Improves Behavioral and Histological Outcomes and Reduces Apoptosis via PI3K/Akt Signaling after Experimental Traumatic Brain Injury” (PLoS ONE, 2012).

Columns and labels:
cytosolic CytoC = experiment: Western blot, cytosolic fraction of injured cortex; type: in vivo, mice; settings: 20 mg/kg ip 10 min after CCI
Experimental: (§1) Three sets of experiments were performed. The first set was to investigate the protective effects of salidroside. All animals were randomized into 1 of 3 groups (sham injury, CCI + vehicle, CCI + SALD 20). Surgery/injury, behavioral testing, and tissue analyses were performed by different individuals. Behavioral testing and tissue analyses were performed by individuals blinded to the treatment group. Salidroside (Cayman Chemical, Ann Arbor, MI, USA) dissolved in normal saline (0.25 mL) or a corresponding volume of vehicle (saline) was administered intraperitoneally 10 min following injury. Testing after injury was completed as follows: 1) behavioral testing at days 1, 4, 7, 14, 21, and 28 (n = 8–10 mice/group); 2) cresyl violet staining at day 28 (n = 9 mice/group); 3) histology, determination of brain water content, and western blot analysis at day 1 or 3 (n = 5–6 mice/group). To determine the optimal dose of salidroside, a pilot study was performed using 2 different doses (20 and 50 mg/kg) administered 10 min after injury, and neurological deficits and tissue damage were evaluated as the main outcomes. […] The second set of experiment was to assess the effect of the inhibition of PI3K/Akt with the specific PI3K inhibitor, LY294002 (Cell Signaling Technology, Danvers, MA, USA), on salidroside effects. Animals were randomized into 4 groups. Mice received either: 1) icv pretreatment of LY294002 followed by SALD 20 after CCI (S20Y group); or 2) icv pretreatment of saline (vehicle control) followed by SALD 20 after CCI (S20V group). 3) Mice were infused icv with saline and were subjected to sham injury. 4) Mice were infused icv with LY294002 and were subjected to sham injury. Testing after injury was completed as follows: 1) cresyl violet staining at day 28 (n = 6 mice/group); 2) western blot analysis at day 1 (n = 6 mice/group). The third set of experiment was performed to examine the neuroprotective time window afforded by salidroside. Mice received intraperitoneal SALD 20 or vehicle (saline) at 3 or 6 h following CCI and were sacrificed 1 day later for FJB staining and western blot analysis (n = 6 mice/group). Brains of injured or sham animals were collected 1 day and 3 days post CCI or sham surgery, and a 4 mm coronal section from the injured area over the parietal cortex and ipsilateral hippocampus were collected. […] Protein concentration was determined by Bradford reagent spectrophotometrically at A595. […] The relative intensity of protein signals was normalized to the corresponding β-actin intensity and was quantified by densitometric analysis with the use of Image J software. […]

cytosolic Smac/DIABLO = experiment: Western blot, cytosolic fraction of injured cortex; type: in vivo, mice; settings: 20 mg/kg ip 10 min after CCI, P<0.05
Experimental: as §1

OC[C@H]1O[C@@H](OCCc2ccc(O)cc2)[C@H](O)[C@@H](O)[C@@H]1O [SALD, salidroside]
cytosolic CytoC level compared to vehicle-treated injured brains (cytosolic CytoC; day 1, P<0.01): 60.6%
cytosolic CytoC level compared to vehicle-treated injured brains (cytosolic CytoC; day 3, P<0.05): 54.7%
cytosolic Smac/DIABLO level compared to vehicle-treated injured brains (cytosolic Smac/DIABLO; day 1): 45.1%
cytosolic Smac/DIABLO level compared to vehicle-treated injured brains (cytosolic Smac/DIABLO; day 3): 58.1%
